Laboratory results reported in patent US20170190671A1, “BIS(ARYL)CATECHOL DERIVATIVES AS HERBICIDES” (E I DU PONT DE NEMOURS AND COMPANY, priority 2014, published 2017).

Columns and labels:
Format in all cases: in vivo
[1] = system: ragweed (common ragweed, Ambrosia elatior); test: Test C preemergence; conditions: Ambrosia artemisiifolia, pre-emergence, 336 h, preemergence, scale 0 to 100, read-out: Plant response rating, Ragweed
Procedure, shortened: (§1)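 0-100 visual injury score (100 = complete control), assessed at 13-15 d after treatment against controls; surfactant-containing solvent formulation applied preemergence to seeded loam-sand soil or sprayed onto 1- to 4-leaf greenhouse plants.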

[2] = system: morningglory (Ipomoea coccinea); test: Test C preemergence; conditions: Ipomoea, pre-emergence, 336 h, preemergence, scale 0 to 100, read-out: Plant response rating, Morningglory
Procedure, shortened: as §1

[3] = system: velvetleaf (Abutilon theophrasti); test: Test C preemergence; conditions: Abutilon theophrasti, pre-emergence, preemergence, scale 0 to 100, read-out: Plant response rating, Velvetleaf
Procedure, shortened: as §1

[4] = system: giant foxtail (Setaria faberii); test: Test C preemergence; conditions: Setaria faberi, pre-emergence, 336 h, preemergence, scale 0 to 100, read-out: Plant response rating, Foxtail, Giant
Procedure, shortened: as §1

[5] = system: winter wheat (Triticum aestivum); test: Test C preemergence; conditions: Triticum aestivum, pre-emergence, 336 h, preemergence, scale 0 to 100, read-out: Plant response rating, Wheat
Procedure, shortened: as §1

[6] = system: johnsongrass (Sorghum halepense); test: Test C preemergence; conditions: Sorghum halepense, pre-emergence, 336 h, preemergence, scale 0 to 100, read-out: Plant response rating, Johnsongrass
Procedure, shortened: as §1

[7] = system: blackgrass (Alopecurus myosuroides); test: Test C preemergence; conditions: Alopecurus myosuroides, pre-emergence, 336 h, preemergence, scale 0 to 100, read-out: Plant response rating, Blackgrass
Procedure, shortened: as §1

[8] = system: yellow nutsedge (Cyperus esculentus); test: Test C preemergence; conditions: Cyperus, pre-emergence, 336 h, preemergence, scale 0 to 100, read-out: Plant response rating, Nutsedge, Yellow
Procedure, shortened: as §1

[9] = system: oilseed rape (Brassica napus); test: Test C preemergence; conditions: Brassica napus, pre-emergence, preemergence, scale 0 to 100, read-out: Plant response rating, Oilseed Rape
Procedure, shortened: as §1

corn (Zea mays) = test: Test C preemergence; conditions: Zea mays, pre-emergence, 336 h, preemergence, scale 0 to 100
Procedure, shortened: as §1

[10] = system: large (Lg) crabgrass (Digitaria sanguinalis); test: Test C preemergence; conditions: Digitaria sanguinalis, pre-emergence, 336 h, preemergence, scale 0 to 100, read-out: Plant response rating, Crabgrass, Large
Procedure, shortened: as §1

[11] = system: waterhemp (common waterhemp, Amaranthus rudis); test: Test C preemergence; conditions: Amaranthus tuberculatus, pre-emergence, preemergence, scale 0 to 100, read-out: Plant response rating, Waterhemp
Procedure, shortened: as §1

[12] = system: Italian ryegrass (Lolium multiflorum); test: Test C preemergence; conditions: Lolium multiflorum, pre-emergence, 336 h, preemergence, scale 0 to 100, read-out: Plant response rating, Ryegrass, Italian
Procedure, shortened: as §1

[13] = system: pigweed (Amaranthus retroflexus); test: Test C preemergence; conditions: Amaranthus retroflexus, pre-emergence, 336 h, preemergence, scale 0 to 100, read-out: Plant response rating, Pigweed
Procedure, shortened: as §1

[14] = system: galium (catchweed bedstraw, Galium aparine); test: Test C preemergence; conditions: Galium, pre-emergence, 336 h, preemergence, scale 0 to 100, read-out: Plant response rating, Galium
Procedure, shortened: as §1

soybean (Glycine max) = test: Test C preemergence; conditions: Glycine max, pre-emergence, preemergence, scale 0 to 100, read-out: Plant response rating, Soybean
Procedure, shortened: as §1

[15] = system: velvetleaf (Abutilon theophrasti); test: Test C postemergence; conditions: Abutilon theophrasti, post-emergence, Postemergence, scale 0 to 100, read-out: Plant response rating, Velvetleaf
[16] = system: giant foxtail (Setaria faberii); test: Test C postemergence; conditions: Setaria faberi, post-emergence, 336 h, Postemergence, scale 0 to 100, read-out: Plant response rating, Foxtail, Giant
[17] = system: blackgrass (Alopecurus myosuroides); test: Test C postemergence; conditions: Alopecurus myosuroides, post-emergence, 336 h, Postemergence, scale 0 to 100, read-out: Plant response rating, Blackgrass
[18] = system: yellow nutsedge (Cyperus esculentus); test: Test C postemergence; conditions: Cyperus, post-emergence, 336 h, Postemergence, scale 0 to 100, read-out: Plant response rating, Nutsedge, Yellow
[19] = system: lambsquarters (Chenopodium album); test: Test C postemergence; conditions: Chenopodium album, post-emergence, 336 h, Postemergence, scale 0 to 100, read-out: Plant response rating, Lambsquarters
[20] = system: chickweed (common chickweed, Stellaria media); test: Test C postemergence; conditions: Stellaria media, post-emergence, Postemergence, scale 0 to 100, read-out: Plant response rating, Chickweed

## Fc1cnc(Oc2c(Br)cccc2Oc2ncc(Cl)cn2)nc1 [Compound 22]
[1]; 31 g ai/ha
  pest or weed control at 31 g/ha: 55%
[1]; 62 g ai/ha
  pest or weed control at 62 g/ha: 85%
[1]; 125 g ai/ha
  pest or weed control at 125 g/ha: 90%
[1]; 250 g ai/ha
  pest or weed control at 250 g/ha: 95%
[2]; 31 g ai/ha
  pest or weed control at 31 g/ha: 0%
[2]; 62 g ai/ha
  pest or weed control at 62 g/ha: 65%
[2]; 125 g ai/ha
  pest or weed control at 125 g/ha: 95%
[3]; 31 g ai/ha
  pest or weed control at 31 g/ha: 70%
[3]; 62 g ai/ha
  pest or weed control at 62 g/ha: 98%
[3]; 125 g ai/ha
  pest or weed control at 125 g/ha: 100%
[3]; 250 g ai/ha
  pest or weed control at 250 g/ha: 100%
[4]; 31 g ai/ha
  pest or weed control at 31 g/ha: 100%
[4]; 62 g ai/ha
  pest or weed control at 62 g/ha: 100%
[4]; 125 g ai/ha
  pest or weed control at 125 g/ha: 100%
[5]; 31 g ai/ha
  plant injury at 31 g/ha: 0%
[5]; 62 g ai/ha
  plant injury at 62 g/ha: 15%
[5]; 125 g ai/ha
  plant injury at 125 g/ha: 20%
[5]; 250 g ai/ha
  plant injury at 250 g/ha: 90%
[6]; 31 g ai/ha
  pest or weed control at 31 g/ha: 10%
[6]; 62 g ai/ha
  pest or weed control at 62 g/ha: 30%
[6]; 125 g ai/ha
  pest or weed control at 125 g/ha: 70%
[7]; 31 g ai/ha
  pest or weed control at 31 g/ha: 10%
[7]; 62 g ai/ha
  pest or weed control at 62 g/ha: 60%
[7]; 125 g ai/ha
  pest or weed control at 125 g/ha: 90%
[8]; 31 g ai/ha
  pest or weed control at 31 g/ha: 0%
[8]; 62 g ai/ha
  pest or weed control at 62 g/ha: 20%
[8]; 125 g ai/ha
  pest or weed control at 125 g/ha: 60%
[9]; 31 g ai/ha
  plant injury at 31 g/ha: 85%
[9]; 62 g ai/ha
  plant injury at 62 g/ha: 98%
[9]; 125 g ai/ha
  plant injury at 125 g/ha: 100%
[9]; 250 g ai/ha
  plant injury at 250 g/ha: 100%
Corn (Zea mays); 31 g ai/ha
  Corn plant response rating (crop injury, 0 = no effect, 100 = complete kill) at 31 g/ha: 10%
Corn (Zea mays); 62 g ai/ha
  Corn plant response rating (crop injury, 0 = no effect, 100 = complete kill) at 62 g/ha: 40%
Corn (Zea mays); 125 g ai/ha
  Corn plant response rating (crop injury, 0 = no effect, 100 = complete kill) at 125 g/ha: 80%
[10]; 31 g ai/ha
  pest or weed control at 31 g/ha: 100%
[10]; 62 g ai/ha
  pest or weed control at 62 g/ha: 100%
[10]; 125 g ai/ha
  pest or weed control at 125 g/ha: 100%
[11]; 31 g ai/ha
  pest or weed control at 31 g/ha: 100%
[11]; 62 g ai/ha
  pest or weed control at 62 g/ha: 100%
[11]; 125 g ai/ha
  pest or weed control at 125 g/ha: 100%
[11]; 250 g ai/ha
  pest or weed control at 250 g/ha: 100%
[12]; 31 g ai/ha
  pest or weed control at 31 g/ha: 5%
[12]; 62 g ai/ha
  pest or weed control at 62 g/ha: 30%
[12]; 125 g ai/ha
  pest or weed control at 125 g/ha: 80%
[12]; 250 g ai/ha
  pest or weed control at 250 g/ha: 90%
[13]; 31 g ai/ha
  pest or weed control at 31 g/ha: 100%
[13]; 62 g ai/ha
  pest or weed control at 62 g/ha: 100%
[13]; 125 g ai/ha
  pest or weed control at 125 g/ha: 100%
[14]; 31 g ai/ha
  pest or weed control at 31 g/ha: 98%
[14]; 62 g ai/ha
  pest or weed control at 62 g/ha: 100%
[14]; 125 g ai/ha
  pest or weed control at 125 g/ha: 100%
Soybean (Glycine max); 31 g ai/ha
  plant injury at 31 g/ha: 60%
Soybean (Glycine max); 62 g ai/ha
  plant injury at 62 g/ha: 70%
Soybean (Glycine max); 125 g ai/ha
  plant injury at 125 g/ha: 90%
Soybean (Glycine max); 250 g ai/ha
  plant injury at 250 g/ha: 95%
[15]; 31 g ai/ha
  pest or weed control at 31 g/ha: 30%
[15]; 62 g ai/ha
  pest or weed control at 62 g/ha: 65%
[15]; 125 g ai/ha
  pest or weed control at 125 g/ha: 70%
[15]; 250 g ai/ha
  pest or weed control at 250 g/ha: 70%
[16]; 31 g ai/ha
  pest or weed control at 31 g/ha: 5%
[16]; 62 g ai/ha
  pest or weed control at 62 g/ha: 5%
[16]; 125 g ai/ha
  pest or weed control at 125 g/ha: 10%
[16]; 250 g ai/ha
  pest or weed control at 250 g/ha: 20%
[17]; 31 g ai/ha
  pest or weed control at 31 g/ha: 5%
[17]; 62 g ai/ha
  pest or weed control at 62 g/ha: 5%
[17]; 125 g ai/ha
  pest or weed control at 125 g/ha: 5%
[17]; 250 g ai/ha
  pest or weed control at 250 g/ha: 10%
[18]; 31 g ai/ha
  pest or weed control at 31 g/ha: 5%
[18]; 62 g ai/ha
  pest or weed control at 62 g/ha: 5%
[18]; 125 g ai/ha
  pest or weed control at 125 g/ha: 10%
[18]; 250 g ai/ha
  pest or weed control at 250 g/ha: 10%
[19]; 31 g ai/ha
  pest or weed control at 31 g/ha: 70%
[19]; 62 g ai/ha
  pest or weed control at 62 g/ha: 75%
[19]; 125 g ai/ha
  pest or weed control at 125 g/ha: 95%
[19]; 250 g ai/ha
  pest or weed control at 250 g/ha: 98%
[20]; 31 g ai/ha
  pest or weed control at 31 g/ha: 50%
[20]; 62 g ai/ha
  pest or weed control at 62 g/ha: 50%
[20]; 125 g ai/ha
  pest or weed control at 125 g/ha: 55%
[20]; 250 g ai/ha
  pest or weed control at 250 g/ha: 80%
